Tested on: tau
Experiment: ^11C-PBB3 autoradiography and competition on large frozen AD brain sections
Assay type: binding, human
Set-up: NSP Binding: unit not given here
Method: Adjacent sections were used for autoradiography with ^11C-THK5351, ^11C-PBB3, and ^18F-T807. The frozen sections were allowed to reach room temperature, incubated for 30 minutes at room temperature with ^11C-THK5351 (0.4–0.56 nM; […]; specific activity 442–794 GBq/μmol) or for 55 minutes at room temperature with ^18F-T807 (0.04 nM; specific activity 281 GBq/μmol). We used 10 μM unlabeled THK5351, 10 μM unlabeled PBB3, and 10 μM unlabeled T807 to determine the extent of nonspecific binding for each tracer. The sections were rinsed three times for 5 minutes each with cold binding buffer, followed by a quick dip in cold distilled water. The sections were dried and exposed for 1 h (for ^11C-THK5351 and ^11C-PBB3) or for 3 h (^18 F-T807) on a phosphor imaging plate and then read using the BAS-2500 phosphor imager.
For all the autoradiography studies, the regions of interest were drawn manually on the autoradiogram using multigauge software and were used for the semiquantitative analyses. Photostimulated luminescence per square millimeter (PSL/mm^2) was transformed to picomoles per cubic millimeter using a transformation factor that took into account the resolution of the image, the pixel value for the concentration of ligand, and the thickness of the sections: (PSL/mm^2 value)/([pixel value per pmol] × [(resolution/1000)^2] × [cryosection thickness]/1000).

[1] = AD1, Basal ganglia, vs Unlabelled PBB3
[2] = AD1, Basal ganglia, vs Unlabelled T807
[3] = AD1, Frontal cortex, vs Unlabelled PBB3
[4] = AD1, Frontal cortex, vs Unlabelled T807
[5] = AD1, Frontal cortex, vs Unlabelled THK5351
[6] = AD1, Insula, vs Unlabelled PBB3
[7] = AD1, Insula, vs Unlabelled T807
[8] = AD1, Temporal cortex, vs Unlabelled PBB3
[9] = AD1, Temporal cortex, vs Unlabelled T807
[10] = AD1, Temporal cortex, vs Unlabelled THK5351
[11] = AD2, Basal ganglia, vs Unlabelled PBB3
[12] = AD2, Basal ganglia, vs Unlabelled T807
[13] = AD2, Basal ganglia, vs Unlabelled THK5351
[14] = AD2, Frontal cortex, vs Unlabelled PBB3
[15] = AD2, Frontal cortex, vs Unlabelled T807
[16] = AD2, Frontal cortex, vs Unlabelled THK5351
[17] = AD2, Insula, vs Unlabelled PBB3
[18] = AD2, Insula, vs Unlabelled T807
[19] = AD2, Insula, vs Unlabelled THK5351
[20] = AD2, Temporal cortex, vs Unlabelled PBB3
[21] = AD2, Temporal cortex, vs Unlabelled T807
[22] = AD2, Temporal cortex, vs Unlabelled THK5351
[23] = AD3, Basal ganglia, vs Unlabelled PBB3
[24] = AD3, Basal ganglia, vs Unlabelled T807
[25] = AD3, Basal ganglia, vs Unlabelled THK5351
[26] = AD3, Frontal cortex, vs Unlabelled PBB3
[27] = AD3, Frontal cortex, vs Unlabelled T807
[28] = AD3, Frontal cortex, vs Unlabelled THK5351
[29] = AD3, Insula, vs Unlabelled PBB3
[30] = AD3, Insula, vs Unlabelled T807
[31] = AD3, Insula, vs Unlabelled THK5351
[32] = AD3, Temporal cortex, vs Unlabelled PBB3
[33] = AD3, Temporal cortex, vs Unlabelled T807
[34] = AD3, Temporal cortex, vs Unlabelled THK5351

[11CH3]Nc1ccc(/C=C/C=C/c2nc3ccc(O)cc3s2)cn1 [^11C-PBB3, (5-((1E,3E)-4-(6-[^11C]methylamino)pyridin-3-yl)buta-1,3-dien-1-yl)benzo[d]thiazol-6-ol]
% of specific binding [1]: 50% | NSP Binding [1]: 2849 | Specific Binding [1]: 2796 | Total Binding [1]: 5645 | % of specific binding [2]: 20% | NSP Binding [2]: 3201 | Specific Binding [2]: 802 | Total Binding [2]: 4004 | % of specific binding [3]: 51% | NSP Binding [3]: 3317 | Specific Binding [3]: 3433 | Total Binding [3]: 6750 | % of specific binding [4]: 17% | NSP Binding [4]: 3919 | Specific Binding [4]: 782 | Total Binding [4]: 4701 | % of specific binding [5]: 22% | NSP Binding [5]: 1579 | Specific Binding [5]: 439 | Total Binding [5]: 2018 | % of specific binding [6]: 45% | NSP Binding [6]: 3353 | Specific Binding [6]: 2690 | Total Binding [6]: 6043 | % of specific binding [7]: 13% | NSP Binding [7]: 3842 | Specific Binding [7]: 566 | Total Binding [7]: 4409 | % of specific binding [8]: 41% | NSP Binding [8]: 3425 | Specific Binding [8]: 2352 | Total Binding [8]: 5777 | % of specific binding [9]: 4% | NSP Binding [9]: 4009 | Specific Binding [9]: 178 | Total Binding [9]: 4187 | % of specific binding [10]: 28% | NSP Binding [10]: 1569 | Specific Binding [10]: 596 | Total Binding [10]: 2164 | % of specific binding [11]: 47% | NSP Binding [11]: 3052 | Specific Binding [11]: 2700 | Total Binding [11]: 5752 | % of specific binding [12]: 21% | NSP Binding [12]: 2790 | Specific Binding [12]: 751 | Total Binding [12]: 3541 | % of specific binding [13]: 19% | NSP Binding [13]: 1517 | Specific Binding [13]: 367 | Total Binding [13]: 1884 | % of specific binding [14]: 51% | NSP Binding [14]: 3051 | Specific Binding [14]: 3187 | Total Binding [14]: 6238 | % of specific binding [15]: 15% | NSP Binding [15]: 3252 | Specific Binding [15]: 595 | Total Binding [15]: 3847 | % of specific binding [16]: 17% | NSP Binding [16]: 1619 | Specific Binding [16]: 341 | Total Binding [16]: 1960 | % of specific binding [17]: 48% | NSP Binding [17]: 3100 | Specific Binding [17]: 2827 | Total Binding [17]: 5927 | % of specific binding [18]: 21% | NSP Binding [18]: 2838 | Specific Binding [18]: 748 | Total Binding [18]: 3585 | % of specific binding [19]: 20% | NSP Binding [19]: 1580 | Specific Binding [19]: 400 | Total Binding [19]: 1979 | % of specific binding [20]: 59% | NSP Binding [20]: 2988 | Specific Binding [20]: 4222 | Total Binding [20]: 7210 | % of specific binding [21]: 12% | NSP Binding [21]: 3425 | Specific Binding [21]: 448 | Total Binding [21]: 3874 | % of specific binding [22]: 36% | NSP Binding [22]: 1506 | Specific Binding [22]: 831 | Total Binding [22]: 2336 | % of specific binding [23]: 48% | NSP Binding [23]: 2989 | Specific Binding [23]: 2786 | Total Binding [23]: 5775 | % of specific binding [24]: 13% | NSP Binding [24]: 2721 | Specific Binding [24]: 422 | Total Binding [24]: 3143 | % of specific binding [25]: 23% | NSP Binding [25]: 1577 | Specific Binding [25]: 481 | Total Binding [25]: 2058 | % of specific binding [26]: 56% | NSP Binding [26]: 3132 | Specific Binding [26]: 4039 | Total Binding [26]: 7171 | % of specific binding [27]: 21% | NSP Binding [27]: 3247 | Specific Binding [27]: 879 | Total Binding [27]: 4125 | % of specific binding [28]: 27% | NSP Binding [28]: 1832 | Specific Binding [28]: 678 | Total Binding [28]: 2511 | % of specific binding [29]: 46% | NSP Binding [29]: 3401 | Specific Binding [29]: 2848 | Total Binding [29]: 6249 | % of specific binding [30]: 8% | NSP Binding [30]: 3261 | Specific Binding [30]: 294 | Total Binding [30]: 3555 | % of specific binding [31]: 18% | NSP Binding [31]: 1815 | Specific Binding [31]: 405 | Total Binding [31]: 2220 | Total Binding (AD3, Temporal cortex, 0.4nM): 6400 pmol/mm^3 | % of specific binding [32]: 50% | NSP Binding [32]: 3203 | Specific Binding [32]: 3207 | Total Binding [32]: 6409 | % of specific binding [33]: 11% | NSP Binding [33]: 3217 | Specific Binding [33]: 396 | Total Binding [33]: 3612 | % of specific binding [34]: 18% | NSP Binding [34]: 1818 | Specific Binding [34]: 397 | Total Binding [34]: 2215

— PMC5725799, “Comparative binding properties of the tau PET tracers THK5117, THK5351, PBB3, and T807 in postmortem Alzheimer brains” (Alzheimer's Research & Therapy, 2017)
